From patent US9868707B2, “Small molecule agonists of neurotensin receptor 1” (SANFORD-BURNHAM MEDICAL RESEARCH INSTITUTE, priority 2012, dated 2018)
Several values for one entry are separate records, joined by “and”; a condition that tells them apart may be missing. Identical values can stand only once.

How the values were obtained:
[1] = Parallel Artificial Membrane Permeability Assay (PAMPA); assay type: in vitro ADME
Protocol: The PAMPA in a 96-well sandwich plate format was used to determine the capacity of compounds to cross a model of cell membrane by passive diffusion (Avdeef, A., Nielsen, P. E., and Tsinman, O. 2004. PAMPA—a drug absorption in vitro model 11. Matching the in vivo unstirred water layer thickness by individual-well stirring in microtitre plates. Eur J Pharm Sci 22:365-374). The effective permeability of the compound was measured at an initial concentration of 50 μM. The permeability measurements were performed using a cosolvent buffer system (20% ACN/aqueous buffer) solution (pION Inc, Woburn Mass.) prepared according to the manufacturer's instructions. The compound was dissolved in buffer solution and ACN (20%, cosolvent) to the desired concentration (50 μM). The PAMPA sandwich plate consisting of a donor bottom plate and an acceptor filter plate was used. The donor wells contained the compounds in 190 μl system solution, and magnetic stir bars. The filter on the bottom of each acceptor well was coated with GIT-0 phospholipid solution (pION Inc) and filled with 200 μl of Acceptor Sink Buffer, pH 7.4 (pION Inc) containing surfactant. The permeation time was 30 min and moderate stirring (equivalent to 40 μm Aqueous Boundary Layer thickness) was applied using the Gut-Box™ (pION, Inc). After the permeation time, the sandwich was disassembled and the amount of compound present in both the donor and acceptor wells was measured by UV absorbance (250-498 nm) and compared to spectra obtained reference standards. Mass balance was used to determine the amount of material embedded in the membrane filter. The effective permeability, Pe, was calculated using the software PAMPA Evolution Plus, version 3.2 (pION Inc).

[2] = Plasma protein binding, Rapid Equilibrium Device, mouse plasma; assay type: in vitro ADME; details: mouse plasma (EDTA), diluted 1:1 with PBS, read-out: Plasma Protein Binding (% Bound) (converted)
Protocol: The extent of compound bound to plasma proteins was measured using the Rapid Equilibrium Device (Pierce Thermo Scientific, Rockford Ill.). The base plate was rinsed with […] followed by 2× washes with ultrapure water and allowed to dry. Human and mouse plasma (BioChemed Services, Winchester Va.) collected in EDTA was allowed to thaw at room temperature and then warmed to 37° C., and diluted 1:1 (v:v) with 1×PBS, pH 7.4, prior to the assay. The compound (1.0 and 10.0 μM final) was added to the chamber containing 300 μl plasma:PBS. Next, 500 μl of dialysis buffer (1×PBS, pH7.4) was added to the buffer chambers of the inserts. The chambers were covered with sealing tape and incubated at 37° C. on an orbital shaker at 300× rpm for 4 hours. […] Results reported are the mean of each reaction duplicate, normalized to the internal standard, and expressed as a percent compound bound after the incubation time. The amount of compound in the supernatant was determined by LC/MS/MS and the percent of free and bound compounds were calculated with the following formulas: Percent of free parent compound=(amount of compound in receiver chamber/amount of compound in donor chamber)*100.

[3] = Plasma stability, mouse plasma; assay type: in vitro ADME
Protocol: Plasma stability was determined using previously published methods (Kerns, E. H., and Di, L. 2008. Drug-like Properties: Concepts, Structure Design and Methods. Oxford UK: Elsevier). Compound (1.0 μM) was incubated at 37° C. in human or mouse plasma (from blood of healthy donors collected on EDTA) diluted to 50% (v/v) with pH 7.4 isotonic phosphate buffer. At time 0 min and 180 min, aliquots were collected, added to acetonitrile to quench the reaction and precipitate plasma proteins. These samples were centrifuged and the supernatant analyzed by the LC/MS/MS method described above for the presence of the parental compound.

[4] = Metabolic stability in human hepatic microsomes; assay type: in vitro ADME
Protocol: (§1) Hepatic metabolic stability was determined using established protocols (Di, L., Kerns, E. H., Hong, Y., Kleintop, T. A., McConnell, O. J., and Huryn, D. M. 2003. Optimization of a higher throughput microsomal stability screening assay for profiling drug discovery candidates. J Biomol Screen 8:453-462). Briefly, the compound (1.0 and 10.0 μM) was preincubated for 10 min at 37° C. in potassium phosphate buffer (pH 7.4) together with 0.5 mg/mL mouse or human hepatic microsomes (Xenotech, Kansas City). The cofactor mixture comprising NADP, G6P, and G6P-DH (BD Biosciences) was added, and aliquots were taken after 0 and 60 min. Samples were analyzed on an Acquity UPLC, coupled with a sample organizer, and interfaced with a triple quadrupole ABI 4000 LC/MS/MS using the methodology described above. The percentage of the compound remaining after a 60 min incubation period was calculated according the following equation: [(area at time 60 min)/(area at time 0 min)]×100%.

[5] = Metabolic stability in mouse hepatic microsomes; assay type: in vitro ADME
Protocol: as §1

[6] = tested on: Fa2N-4 immortalized human hepatocytes; assay: Cell viability with ATP-lite (hepatic toxicity); assay type: cell-based
Protocol: Hepatic toxicity of compounds was determined with Fa2N-4 immortalized human hepatocytes using the ATP-lite 1-step assay (Perkin Elmer). assay according to the manufacturer's instructions. Fa2N-4 cells (XenoTech, Kansas City, Kans.) were seeded at 50,000 cells/well, and incubated with a range of concentrations of the test compound (0.01 μM-50 μM) in MFE support, media for 24 hrs at 37° C., 5% CO2. At the end of the experiment, cell viability was determined by cellular ATP levels using the ATP-lite kit according to the manufacturer's instructions Luminescence was measured on the Infinite M200 plate reader (Tecan US).

signal = assay: Panlabs/Ricerca lead profiling panel, signal; assay type: binding; details: @ 10 μM
Excerpt: However, these activities in in vitro binding assays may not translate into functional modulation of these receptors.

SMILES: COc1cc2nc(C3CC3)nc(N3CCN(c4ccccc4OC)CC3)c2cc1OC [Compound 315, 2-cyclopropyl-6,7-dimethoxy-4-(4-(2-methoxyphenyl)piperazin-1-yl)quinazoline]
- PAMPA Permeability, Pe ([1]; Donor pH 5.0, Acceptor pH 7.4): 1163 ×10⁻⁶ cm/s
- PAMPA Permeability, Pe ([1]; Donor pH 6.2, Acceptor pH 7.4): 2145 ×10⁻⁶ cm/s
- PAMPA Permeability, Pe ([1]; Donor pH 7.4, Acceptor pH 7.4): 2093 ×10⁻⁶ cm/s
- permeability in the PAMPA assay ([1]; with increasing pH of the donor compartment): high permeability
- fraction unbound at 4 h, 1 μM ([2]; pH 7.4, 1 μM): 0.0033
- fraction unbound at 4 h, 10 μM ([2]; pH 7.4, 10 μM): 0.0116
- Plasma Stability (% Remaining at 3 hrs) [3]: 99.55%
- Hepatic Microsome Stability (% Remaining at 1 hr) [4]: 1.36%
- metabolism in vitro with liver homogenates [4]: metabolized rapidly
- Hepatic Microsome Stability (% Remaining at 1 hr) [5]: 0.16%
- metabolism in vitro with liver homogenates [5]: metabolized rapidly
- window for toxicity towards human hepatocytes [6]: > 15 fold
- CC50 ([6]; 24 hrs, read-out: Toxicity Towards Fa2N-4 Immortalized Human Hepatocytes LC50): 30 µM and 29.6 µM
- activity at signal (signal): 69%
